In patent US20170275270A1, “BENZYL SUBSTITUTED INDAZOLES” (Bayer Pharma Aktiengesellschaft, priority 2014, published 2017):
Read-outs that look alike come from different tables or passages of the source.

Key:
[1] = target: T1, catalytic domain of human Bub1 (amino acids 704-1085) (Homo sapiens, UniProt O43683); assay: Bub1 kinase assay (TR-FRET); type: biochemical
T1 construct: catalytic domain of human Bub1 (amino acids 704-1085); His6 (N); made in house; host or cells: Hi5 insect cells
Method in brief: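 TR-FRET read-out (Eu-anti-mouse IgG/anti-phosphoserine antibody to streptavidin-XL665 on biotinylated peptide) after EDTA stop and 1 h complex formation at 22° C. Kinase reaction ran 60 min at 22° C with 1:3.4 serial dilutions from 2 mM DMSO stocks. IC50 from 4-parameter logistic fit of normalized inhibition.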

Bub1 = Bub1 (Homo sapiens, UniProt O43683); assay: Formation-Assay: phosphorylation status of histone 2A by inhibition of kinase activity of Bub1; type: cell-based; conditions: Biological Assay 4.1: H2A Formation IC50, co-treatment with Nocodazole 1 μg/ml, 16 h
Chain of Bub1 (O43683 whole entry): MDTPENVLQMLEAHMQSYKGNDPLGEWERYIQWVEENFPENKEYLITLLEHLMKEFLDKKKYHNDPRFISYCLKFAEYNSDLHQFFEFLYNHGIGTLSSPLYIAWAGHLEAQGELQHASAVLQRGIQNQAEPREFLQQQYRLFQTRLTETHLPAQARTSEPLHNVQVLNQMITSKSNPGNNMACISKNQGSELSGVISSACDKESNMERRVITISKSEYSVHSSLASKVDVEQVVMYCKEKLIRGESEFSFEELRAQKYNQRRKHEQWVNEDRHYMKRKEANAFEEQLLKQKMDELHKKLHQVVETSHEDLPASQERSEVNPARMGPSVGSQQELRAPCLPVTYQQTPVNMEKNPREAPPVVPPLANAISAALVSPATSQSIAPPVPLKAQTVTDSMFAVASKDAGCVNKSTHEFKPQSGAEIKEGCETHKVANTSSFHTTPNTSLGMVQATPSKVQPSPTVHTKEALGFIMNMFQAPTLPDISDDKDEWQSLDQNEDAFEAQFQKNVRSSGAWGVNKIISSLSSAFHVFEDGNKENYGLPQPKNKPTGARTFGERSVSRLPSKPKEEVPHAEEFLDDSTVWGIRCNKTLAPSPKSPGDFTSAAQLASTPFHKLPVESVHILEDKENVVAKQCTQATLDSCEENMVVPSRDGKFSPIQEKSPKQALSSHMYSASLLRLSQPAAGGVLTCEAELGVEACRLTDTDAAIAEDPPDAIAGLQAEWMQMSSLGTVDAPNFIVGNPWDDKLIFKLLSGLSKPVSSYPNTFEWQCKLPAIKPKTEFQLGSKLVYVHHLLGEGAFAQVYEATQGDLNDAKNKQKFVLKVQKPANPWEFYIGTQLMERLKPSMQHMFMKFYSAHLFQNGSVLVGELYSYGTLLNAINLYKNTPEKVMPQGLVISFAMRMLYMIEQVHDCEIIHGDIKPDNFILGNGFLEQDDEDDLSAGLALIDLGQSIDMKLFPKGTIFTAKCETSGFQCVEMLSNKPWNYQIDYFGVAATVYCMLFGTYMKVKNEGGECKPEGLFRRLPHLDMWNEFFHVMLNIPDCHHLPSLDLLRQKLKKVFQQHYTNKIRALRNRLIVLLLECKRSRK
Method in brief: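 Cells co-treated 16 h with Nocodazole (1 μg/ml) and compound (3 nM–10 μM), then fixed and immunostained for phospho-H2A, read by infrared imaging (800 nm) normalised to cell stain (700 nm). Nocodazole-only set as 100%, untreated cells as 0%.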

HeLa = assay: Proliferation assay (HeLa cell line); conditions: Homo sapiens, 96 h, read-out: Biological Assay 2: Proliferation assay (HeLa cell line) median IC50;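 further: crystal violet staining of cell number, scaled between a plate stained before dosing (0%) and cells left untreated (100%), compounds tested at 0.001-10 µM, IC50 via 4-parameter fit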
Description: Cultivated tumor cells (cells were ordered from ATCC, except HeLa-MaTu and HeLa-MaTu-ADR, which were ordered from EPO-GmbH, Berlin) were plated at a density of 1000 to 5000 cells/well, depending on the growth rate of the respective cell line, in a 96-well multititer plate in 200 μL of their respective growth medium supplemented 10% fetal calf serum. After 24 hours, the cells of one plate (zero-point plate) were stained with crystal violet (see below), while the medium of the other plates was replaced by fresh culture medium (200 μL), to which the test substances were added in various concentrations (0 μM, as well as in the range of 0.001-10 μM; the final concentration of the solvent dimethyl sulfoxide was 0.5%). The cells were incubated for 4 days in the presence of test substances. Cell proliferation was determined by staining the cells with crystal violet: the cells were fixed by adding 20 μL measuring point of an 11% glutaric aldehyde solution for 15 minutes at room temperature. After three washing cycles of the fixed cells with water, the plates were dried at room temperature. The cells were stained by adding 100 μL/measuring point of a 0.1% crystal violet solution (pH 3.0). After three washing cycles of the stained cells with water, the plates were dried at room temperature. The dye was dissolved by adding 100 μl/measuring point of a 10% acetic acid solution. […] The change of cell number, in percent, was calculated by normalization of the measured values to the absorbtion values of the zero-point plate (=0%) and the absorbtion of the untreated (0 μm) cells (=100%). The IC50 values were determined by means of a 4 parameter fit.

[2] = system: HeLa human cervical tumor cells; assay: Proliferation assay (HeLa+Paclitaxel); conditions: read-out: Biological Assay 3: HeLa + Paclitaxel IC50, 3 nM paclitaxel, crystal violet;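 further: compounds at 0.001-10 µM added 4 h after paclitaxel, 92 h exposure, absorbance normalized to zero-point plate (0%) and untreated cells (100%), IC50 from 4-parameter fit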
Description: Proliferation Assay (HeLa+Paclitaxel):
Cultivated HeLa human cervical tumor cells (DSMZ ACC-57) were plated at a density of 3000 cells/well in a 96-well multititer plate in 200 μL of growth medium supplemented 10% fetal calf serum. After 24 hours, the cells of one plate (zero-point plate) were stained with crystal violet (see below). The medium of the other plates was supplemented with 3 nM of paclitaxel (Sigma-Aldrich) and the cells were incubated at 37° C. After 4 hours the test substances were added in various concentrations (0 μM, as well as in the range of 0.001-10 μM; the final concentration of the solvent dimethyl sulfoxide was adjusted to 0.1%) using a Hewlett-Packard HP D300 Digital Dispenser. The cells were incubated for another 92 hours at 37° C. in the presence of test substances. Cell proliferation was determined by staining the cells with crystal violet: the cells were fixed by adding 20 μL/measuring point of an 11% glutaric aldehyde solution for 15 minutes at room temperature. After three washing cycles of the fixed cells with water, the plates were dried at room temperature. The cells were stained by adding 100 μL/measuring point of a 0.1% crystal violet solution (pH 3.0). After three washing cycles of the stained cells with water, the plates were dried at room temperature. The dye was dissolved by adding 100 μL/measuring point of a 10% acetic acid solution. […] The change of cell number, in percent, was calculated by normalization of the measured values to the absorbtion values of the zero-point plate (=0%) and the absorbtion of the untreated (0 μm) cells (=100%). The IC50 values were determined by means of a 4 parameter fit.

[3] = 10 μM ATP, read-out: Biological Assay 1: Bub1 kinase assay median IC50
[4] = Biological Assay 1: Bub1 kinase assay median IC50, 10 μM ATP

T1 sequence (O43683 704-1085): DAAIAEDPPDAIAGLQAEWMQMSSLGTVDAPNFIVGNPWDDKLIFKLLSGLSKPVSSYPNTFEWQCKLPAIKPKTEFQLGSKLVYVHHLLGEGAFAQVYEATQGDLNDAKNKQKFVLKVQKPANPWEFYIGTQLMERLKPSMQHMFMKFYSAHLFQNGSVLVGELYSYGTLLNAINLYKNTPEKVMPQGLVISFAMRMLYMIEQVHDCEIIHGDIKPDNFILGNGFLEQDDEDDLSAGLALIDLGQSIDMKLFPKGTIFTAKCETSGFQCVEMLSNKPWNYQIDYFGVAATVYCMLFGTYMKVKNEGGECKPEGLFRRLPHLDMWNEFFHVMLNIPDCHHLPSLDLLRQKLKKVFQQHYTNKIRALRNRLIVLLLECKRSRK

IC50 [1, 3] [nM] | IC50 (Bub1) [nM] | IC50 (HeLa) [nM] | IC50 [2] [nM] | IC50 [1, 4] [nM] | Compound
6 | 6.6 | 3400 | 89 |  | CCOc1cc(F)c(Cn2nc(-c3nc(CN4CCOCC4)cc(Nc4ccncc4C)n3)c3ccccc32)c(F)c1 [Example 2-12-13, 2-[1-(4-ethoxy-2,6-difluorobenzyl)-1H-indazol-3-yl]-N-(3-methylpyridin-4-yl)-6-(morpholin-4-ylmethyl)pyrimidin-4-amine]
8.8 | 11 | 1800 | 100 |  | CCOc1cc(F)c(Cn2nc(-c3nc(CN4CCOCC4)cc(Nc4ccnc(NC(C)=O)c4)n3)c3ccccc32)c(F)c1 [Example 2-12-14, N-[4-({2-[1-(4-ethoxy-2,6-difluorobenzyl)-1H-indazol-3-yl]-6-(morpholin-4-ylmethyl)pyrimidin-4-yl}amino)pyridin-2-yl]acetamide]
 | 57 | 1000 | 130 | 290 | CCOc1cc(F)c(Cn2nc(-c3nc4c(c(Nc5ccncc5C)n3)CCN(Cc3ccccc3)C4)c3ccccc32)c(F)c1 [Example 2-12-16, 7-benzyl-2-[1-(4-ethoxy-2,6-difluorobenzyl)-1H-indazol-3-yl]-N-(3-methylpyridin-4-yl)-5,6,7,8-tetrahydropyrido[3,4-d]pyrimidin-4-amine]
8.4 | 4.1 | 2000 | 250 |  | CCOc1cc(F)c(Cn2nc(-c3nc4c(c(Nc5ccnc(NC(C)=O)c5)n3)CCC4)c3ccccc32)c(F)c1 [Example 2-12-18, N-[4-({2-[1-(4-ethoxy-2,6-difluorobenzyl)-1H-indazol-3-yl]-6,7-dihydro-5H-cyclopenta[d]pyrimidin-4-yl}amino)pyridin-2-yl]acetamide]
 | 2.9 | 2800 | 330 | 5.3 | CCOc1cc(F)c(Cn2nc(-c3nc(COC)cc(Nc4ccnc(NC(C)=O)c4)n3)c3ccccc32)c(F)c1 [Example 2-12-20, N-[4-({2-[1-(4-ethoxy-2,6-difluorobenzyl)-1H-indazol-3-yl]-6-(methoxymethyl)pyr-imidin-4-yl}amino)pyridin-2-yl]acetamide]
 | 35 | 1200 | 750 | 9.3 | CCOc1cc(F)c(Cn2nc(-c3nc(CC)cc(Nc4ccnc(NC(C)=O)c4)n3)c3ccccc32)c(F)c1 [Example 2-12-22, N-[4-({2-[1-(4-ethoxy-2,6-difluorobenzyl)-1H-indazol-3-yl]-6-ethylpyrimidin-4-yl}amino)pyridin-2-yl]acetamide]
23 | 10 | > 10000 | 380 |  | CCOc1cc(F)c(Cn2nc(-c3nc(C)c(Cl)c(Nc4ccncc4)n3)c3ccccc32)c(F)c1 [Example 2-12-23, 5-chloro-2-[1-(4-ethoxy-2,6-difluorobenzyl)-1H-indazol-3-yl]-6-methyl-N-(pyridin-4-yl)pyrimidin-4-amine]
520 | 370 | 8300 | 400 |  | CCOc1cc(F)c(Cn2nc(-c3nc(CN4CCOCC4)cc(Nc4ccnc(S(C)(=O)=O)c4)n3)c3ccccc32)c(F)c1 [Example 2-12-33, 2-[1-(4-ethoxy-2,6-difluorobenzyl)-1H-indazol-3-yl]-N-[2-(methylsulfonyl)pyridin-4-yl]-6-(morpholin-4-ylmethyl)pyrimidin-4-amine]
36 | 700 | 7800 | 500 |  | CCOc1cc(F)c(Cn2nc(-c3nc(CN4CCOCC4)cc(Nc4ccncc4Cl)n3)c3ccccc32)c(F)c1 [Example 2-12-34, N-(3-chloropyridin-4-yl)-2-[1-(4-ethoxy-2,6-difluorobenzyl)-1H-indazol-3-yl]-6-(morpholin-4-ylmethyl)pyrimidin-4-amine]
